Laboratory results taken from US20120101032A1, “NOVEL MACROCYCLIC INHIBITORS OF HEPATITIS C VIRUS REPLICATION” (priority 2010, published 2012).

Columns and labels:
NS3/NS4 complexes = NS3/NS4 complexes (Hepatitis C virus genotype 1a, UniProt P27958); experiment: biochemical; details: NS3-NS4 activity; 23° C., pH 7.5, 25 μM NS4A peptide; read-out: IC50
Outline: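 First, NS3 and NS4 are complexed; test compounds are then titrated against the complex at room temperature (23° C.) in Tris-HCl buffer, pH 7.5, supplemented with glycerol (15%), LDAO (0.6 mM), DTT (10 mM) and NS4A peptide (25 μM) to give IC50. Separately, replicon cells give EC50.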

hepatitis C replicon = hepatitis C replicon EC50 assay; assay type: cell-based; details: Hepatitis C virus; hepatitis C replicon; read-out: EC50
Text: NS3-NS4 inhibition activity can be determined using known assay methods.

Chain of NS3/NS4 complexes (P27958 1027-1657, one chain of several): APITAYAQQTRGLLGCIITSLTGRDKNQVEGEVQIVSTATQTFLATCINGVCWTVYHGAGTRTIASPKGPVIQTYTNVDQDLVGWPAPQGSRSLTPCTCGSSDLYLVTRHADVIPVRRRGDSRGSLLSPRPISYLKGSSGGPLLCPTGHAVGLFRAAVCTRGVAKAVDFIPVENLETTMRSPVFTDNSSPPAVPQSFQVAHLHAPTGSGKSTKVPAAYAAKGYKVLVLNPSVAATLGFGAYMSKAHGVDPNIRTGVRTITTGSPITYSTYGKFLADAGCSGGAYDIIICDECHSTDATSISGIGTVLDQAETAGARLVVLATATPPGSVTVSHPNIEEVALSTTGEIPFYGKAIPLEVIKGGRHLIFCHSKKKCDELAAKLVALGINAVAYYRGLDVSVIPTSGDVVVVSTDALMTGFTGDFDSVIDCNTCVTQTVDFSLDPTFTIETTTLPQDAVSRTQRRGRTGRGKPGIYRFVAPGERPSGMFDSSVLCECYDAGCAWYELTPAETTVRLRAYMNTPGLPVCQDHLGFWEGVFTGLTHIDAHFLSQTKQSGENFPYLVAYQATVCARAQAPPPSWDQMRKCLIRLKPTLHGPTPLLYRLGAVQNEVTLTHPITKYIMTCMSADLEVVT

COc1ccc2c(O[C@@H]3C[C@H]4C(=O)N[C@]5(C(=O)NS(=O)(=O)C6(C)CC6)C[C@H]5/C=C\CCCCC[C@H](N)C(=O)N4C3)cc(C(C)C)nc2c1C [Compound 502]
IC50 (NS3/NS4 complexes): < 10 nM | EC50 (hepatitis C replicon): > 100 nM

CC(C)c1csc(-c2cc(O[C@@H]3C[C@H]4C(=O)N[C@]5(C(=O)NS(=O)(=O)C6(C)CC6)C[C@H]5/C=C\CCCCC[C@H](NC(=O)OC(C)(C)C)C(=O)N4C3)ccn2)n1 [Compound 601]
IC50 (NS3/NS4 complexes): < 10 nM | EC50 (hepatitis C replicon): < 10 nM

CC(C)c1csc(-c2cc(O[C@@H]3C[C@H]4C(=O)N[C@]5(C(=O)NS(=O)(=O)C6(C)CC6)C[C@H]5/C=C\CCCCC[C@H](N)C(=O)N4C3)ccn2)n1 [Compound 602]
IC50 (NS3/NS4 complexes): < 10 nM | EC50 (hepatitis C replicon): > 100 nM

CC(C)(C)OC(=O)N[C@H]1CCCCC/C=C\[C@@H]2C[C@@]2(C(=O)NS(=O)(=O)C2(C)CC2)NC(=O)[C@@H]2C[C@@H](Oc3nc4cccc(-c5nc(C6CCCCC6)cs5)c4nc3C(F)(F)F)CN2C1=O [Compound 701]
IC50 (NS3/NS4 complexes): < 10 nM | EC50 (hepatitis C replicon): > 100 nM

CC(C)(C)OC(=O)N[C@H]1CCCCC/C=C\[C@@H]2C[C@@]2(C(=O)NS(=O)(=O)C2(C)CC2)NC(=O)[C@@H]2C[C@@H](Oc3nc4c(-c5nc(C6CCCCC6)cs5)cccc4nc3C(F)(F)F)CN2C1=O [Compound 702]
IC50 (NS3/NS4 complexes): < 10 nM | EC50 (hepatitis C replicon): < 10 nM

Cc1nc2cccc(-c3nc(C4CCCCC4)cs3)c2nc1O[C@@H]1C[C@H]2C(=O)N[C@]3(C(=O)NS(=O)(=O)C4(C)CC4)C[C@H]3/C=C\CCCCC[C@H](NC(=O)OC(C)(C)C)C(=O)N2C1 [Compound 703]
IC50 (NS3/NS4 complexes): < 10 nM | EC50 (hepatitis C replicon): < 10 nM
